This is an account of results in PubChem BioAssay AID493142 (Sanford-Burnham Center for Chemical Genomics, 2011).

Where “and” joins values, the source holds several entries; their conditions need not be identical. Equal values may be shown once. Calls of active or inactive are those of the source.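 The calls were made as follows: active = mean IC50 below 100 µM; inactive = the rest.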 Where only a bound is given, the exact number is not on record here.

For this assay, the target named is Intestinal alkaline phosphatase (Alpi) [Mus musculus]. Description: mouse IAP inhibition by analogs, SAR follow-up, selectivity assay for human IAP inhibitor project, biochemical, ortholog specificity, luminescence (AID 493142). Conditions: Purified mouse IAP, CDP-Star luminescence, 30 min.
As to `COc1ccc(-c2csc(Nc3cccc4ccccc34)n2)cc1F`, the IC50 was > 100 µM (inactive).

In the case of `Cc1ccc(Nc2nc(-c3ccc(O)c(C(N)=O)c3)cs2)cc1`, the IC50 is > 100 µM (inactive).

Turning to `COc1ccc(C(=O)NNC(=S)NC2CCCCC2)cc1OC`, the IC50 was 88.1 µM.

Regarding `COc1cc(C=NN=C2SC(CC(=O)O)C(=O)N2c2ccc(O)cc2)ccc1O` (stereo unspecified), the IC50 was > 100 µM (inactive).

For `Cc1ccc(-c2ccc(/C=N/N=C3\NC(=O)C(CC(=O)O)S3)o2)c([N+](=O)[O-])c1` (stereo unspecified), the IC50 is > 100 µM (inactive).

In the case of `COc1ccc(/C=N/N=C2\NC(=O)C(CC(=O)O)S2)c(OC)c1` (stereo unspecified), the IC50 was > 100 µM (inactive).

In the case of `Oc1ccc(-c2csc(Nc3ccccc3)n2)c(O)c1`, the IC50 was > 100 µM (inactive).

For `CCOc1cc(C=N/N=C2/NC(=O)C(CC(=O)O)S2)ccc1OCc1ccccc1Cl` (stereo unspecified), the IC50 is > 100 µM (inactive).

Regarding `COc1ccc(C=NNC(=S)Nc2ccccc2[N+](=O)[O-])cc1O`, the IC50 is > 100 µM (inactive).

With `Cc1ccc2nc(NNC(=O)c3ccc4c(c3)OCCO4)sc2c1`, the IC50 was 57.7 µM.

For `Cc1cccc2sc(NNC(=O)c3ccc4c(c3)OCCO4)nc12`, the IC50 is 76 µM.

In the case of `COC(=O)/C=C1\S/C(=N/N=C/CC(=O)OC)NC1=O`, the IC50 is > 100 µM (inactive).

As for `Cc1ccc(Nc2nc(-c3ccc(O)cc3O)cs2)cc1`, the IC50 was > 100 µM (inactive).

`NS(=O)(=O)c1ccc(Nc2nc(-c3ccc(O)cc3O)cs2)cc1`: the 50% inhibitory concentration (IC50) was 49 µM.

In the case of `CCc1ccccc1Nc1nc(-c2ccc(O)c(O)c2)cs1`, the IC50 is 5.47 µM and 4.15 µM.

Regarding `COC(=O)/C=C1/S/C(=N/NC(=O)c2ccccc2C)NC1=O`, the IC50 is > 100 µM (inactive).

Take `COc1cc(C(=O)NNC(=S)Nc2ccc(S(N)(=O)=O)cc2)cc(OC)c1OC`: the IC50 is > 100 µM (inactive).

In the case of `COC(=O)/C=C1/S/C(=N/NC(=O)c2ccccc2OC)NC1=O`, the IC50 was > 100 µM (inactive).

For the compound `Cc1ccc2sc(NNC(=O)c3ccc4c(c3)OCCO4)nc2c1C`, the IC50 is > 100 µM (inactive).

Turning to `O=S(=O)(c1ccc(NC(=S)N/N=C/c2ccc(O)c(O)c2O)cc1)N1CCOCC1`, the half-maximal inhibitory concentration (IC50) is 80.8 µM.

Regarding `CCOc1ccc(Nc2nc(-c3ccc(O)c(O)c3)cs2)cc1`, the IC50 was 6.98 µM.

For the compound `FC(F)(F)c1cccc(NC(=S)NCCC(c2ccccc2)c2ccccc2)c1`, the IC50 was > 100 µM (inactive).

With `COc1ccc(/C=N/N=C2/NC(=O)C(CC(=O)O)S2)cc1OC` (stereo unspecified), the IC50 was > 100 µM (inactive).

In the case of `COc1ccc(NC(=S)NCCC(c2ccccc2)c2ccccc2)cc1`, the IC50 was > 100 µM (inactive).

`COc1ccc(C=Nn2c(=S)n(C)c3ccccc32)cc1OC`: the IC50 was > 100 µM (inactive).

As to `CCOc1cc(/C=N/N=C2\NC(=O)C(CC(=O)O)S2)ccc1O` (stereo unspecified), the IC50 is > 100 µM (inactive).

Regarding `Cc1cccc(NC(=S)NN=Cc2ccc3c(c2)OCO3)c1`, the IC50 was > 100 µM (inactive).

`COc1cc([N+](=O)[O-])ccc1NC(=S)NNC(=O)c1ccc2c(c1)OCO2`: the IC50 was 95.4 µM.

Consider `O=S(=O)(c1ccc(NC(=S)N/N=C/c2ccc(O)c(O)c2)cc1)N1CCOCC1`, for which the IC50 is 1.02 µM.

On to `Cc1ccc(Nc2nc(-c3ccc(O)cc3O)cs2)cc1F`, for which the IC50 was > 100 µM (inactive).

As for `O=C(O)CC1S/C(=N/N=C/c2ccco2)NC1=O` (stereo unspecified), the IC50 is > 100 µM (inactive).

`CC(C)(C)c1ccc(/C=N/N=C2\NC(=O)C(CC(=O)O)S2)cc1` (stereo unspecified): the IC50 was > 100 µM (inactive).

On to `COc1ccc(-c2csc(Nc3cccc4ccccc34)n2)cc1`, for which the IC50 was > 100 µM (inactive).

As to `COC(=O)/C=C1/S/C(=N/NC(=O)c2ccccc2)NC1=O`, the IC50 is > 100 µM (inactive).

As to `COc1ccc(Cl)cc1Nc1nc(-c2ccc(O)c(O)c2)cs1`, the half-inhibitory concentration (IC50) is 5.23 µM and 4.64 µM.

As for `Cc1ccc(Nc2nc(-c3ccc(O)cc3O)cs2)cc1C`, the IC50 is > 100 µM (inactive).

`COc1cccc(Nc2nc(-c3ccc(O)cc3)cs2)c1`: the IC50 is > 100 µM (inactive).

With `Cc1cccc(C)c1NC(=S)N/N=C/c1ccc(O)c(O)c1O`, the IC50 is 58.3 µM.

On to `Cc1c(Cl)cccc1Nc1nc(-c2ccc(O)c(O)c2)cs1`, for which the IC50 was 4.43 µM and 12 µM.

Turning to `COC(=O)/C=C1/S/C(=N/NC(=O)c2ccc(Cl)cc2Cl)NC1=O`, the IC50 is > 100 µM (inactive).

Turning to `COC(=O)/C=C1\SC(N=Nc2c(O)[nH]c3ccccc23)=NC1=O`, the IC50 was > 100 µM (inactive).

Regarding `O=[N+]([O-])c1ccc(NC(=S)NCCC(c2ccccc2)c2ccccc2)cc1`, the IC50 is > 100 µM (inactive).

`CCOc1cc(C=NNC(=S)NC2CCCCC2)ccc1O`: the IC50 is > 100 µM (inactive).

For the compound `COC(=O)C/C=N/N=C1\NC(=O)/C(=C/C(=O)O)S1`, the IC50 was > 100 µM (inactive).

On to `Cc1ccc(Nc2nc(-c3ccc(O)c(O)c3)cs2)cc1`, for which the IC50 was 6.64 µM.

In the case of `CCN(CC)S(=O)(=O)c1ccc(-c2csc(=Nc3cccc4ccccc34)n2C)cc1`, the IC50 is > 100 µM (inactive).

In the case of `O=[N+]([O-])c1ccccc1NC(=S)NN=Cc1ccc(O)c(O)c1`, the IC50 was 6.64 µM.

Turning to `COC(=O)/C=C1\S/C(=N/N=C/c2ccc(Cl)cc2)NC1=O`, the IC50 is > 100 µM (inactive).

As for `Oc1ccc(-c2csc(Nc3cccc4ccccc34)n2)cc1O`, the half-inhibitory concentration (IC50) was 2.72 µM and 5.26 µM.

Consider `Cc1ccc(C)c(Nc2nc(-c3ccc(O)cc3O)cs2)c1`, for which the IC50 was > 100 µM (inactive).

For `Cc1cccc(NC(=S)NNC(=O)c2ccc3c(c2)OCO3)c1`, the IC50 is 58.5 µM.

Turning to `Cc1cc(C)cc(Nc2nc(-c3ccc(O)cc3O)cs2)c1`, the IC50 is > 100 µM (inactive).

For `O=[N+]([O-])c1ccccc1NC(=S)N/N=C/c1ccc(O)c(O)c1O`, the IC50 was 22.2 µM.

Consider `CC(=NNC(=S)Nc1ccccc1)c1ccc2c(c1)OCO2`, for which the IC50 is > 100 µM (inactive).

Regarding `Cc1cccc(Nc2nc(-c3ccc(O)c(O)c3)cs2)c1`, the IC50 was 7.77 µM.

For `COc1cc(C=NNC(=S)Nc2cccc(S(=O)(=O)N(C)C)c2)ccc1O`, the IC50 is > 100 µM (inactive).

`COc1cc([N+](=O)[O-])ccc1NC(=S)NCCC(c1ccccc1)c1ccccc1`: the IC50 is > 100 µM (inactive).

With `COc1cc(/C=N/N=C2/SCC(=O)N2c2ccc(O)cc2)ccc1O`, the IC50 was > 100 µM (inactive).

`Cc1ccc(Nc2nc(-c3ccc(O)c(O)c3)cs2)cc1F`: the IC50 was 9.66 µM.

Consider `COc1ccc(C=NN=C2SC(CC(=O)O)C(=O)N2c2ccc(O)cc2)cc1` (stereo unspecified), for which the IC50 was > 100 µM (inactive).

`Cn1c(=S)n(N=Cc2ccc3c(c2)OCO3)c2ccccc21`: the IC50 is > 100 µM (inactive).

`COc1cc(/C=N/N=C2\NC(=O)C(CC(=O)O)S2)cc(OC)c1OC` (stereo unspecified): the IC50 is > 100 µM (inactive).

Regarding `O=S(=O)(Nc1ncccn1)c1ccc(NC(=S)NCCC(c2ccccc2)c2ccccc2)cc1`, the IC50 is > 100 µM (inactive).

On to `Oc1ccc(Nc2nc(-c3ccc(O)c(O)c3)cs2)cc1`, for which the IC50 was 1.4 µM.

`COC(=O)/C=C1/S/C(=N/N=Cc2ccc(N(C)C)cc2)NC1=O`: the IC50 is > 100 µM (inactive).

As to `NS(=O)(=O)c1ccc(Nc2nc(-c3ccc(O)c(O)c3)cs2)cc1`, the IC50 was 2.11 µM.

For `CN(C)S(=O)(=O)c1cccc(NC(=S)NN=Cc2ccc(O)c(O)c2O)c1`, the concentration for half-maximal inhibition (IC50) was 27.6 µM.

As for `Cc1cccc(Nc2nc(-c3ccc(O)c(C(N)=O)c3)cs2)c1`, the IC50 is > 100 µM (inactive).

Turning to `Oc1ccc(-c2csc(Nc3ccc(F)cc3)n2)cc1O`, the IC50 was 5.59 µM.

Take `Cc1ccc(Cl)cc1Nc1nc(-c2ccc(O)c(O)c2)cs1`: the IC50 was 3.85 µM.

On to `COC(=O)/C=C1/S/C(=N/NC(=O)c2ccc(OC)cc2)NC1=O`, for which the IC50 is > 100 µM (inactive).

`COc1cc(C=NNC(=S)Nc2cccc(S(=O)(=O)N(C)C)c2)cc(OC)c1O`: the IC50 was > 100 µM (inactive).

`N#CCCn1cc(/C=N/N=C2/NC(=O)C(CC(=O)O)S2)c(-c2ccc(F)cc2)n1` (stereo unspecified): the IC50 was > 100 µM (inactive).

With `COc1cc(C=NNC(=S)Nc2cccc(C(=O)O)c2)ccc1O`, the IC50 was > 100 µM (inactive).

`S=C(NCCC(c1ccccc1)c1ccccc1)Nc1ccc(Cl)cc1Cl`: the IC50 was > 100 µM (inactive).

With `Cc1cc(=O)oc2cc(NC(=S)NCCC(c3ccccc3)c3ccccc3)ccc12`, the IC50 was > 100 µM (inactive).
